Measured values from patent US11130769B2 (Prelude Therapeutics Incorporated, priority 2018, dated 2021).
Read-outs that look alike come from different tables or passages of the source.

Assays:
MCL-1 = MCL-1 (Homo sapiens (Human), UniProt Q07820); assay: Cell free Mcl-1:Bim affinity assay (fluorescence polarization competition); format: binding; conditions: 15 nM MCL-1, 5 nM FITC-Bim, 1 hour at room temperature, read-out: BIM_Ki
Outline: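 Compounds competed with FITC-labelled Bim peptide (5 nM) for MCL-1 (15 nM) in HEPES/NaCl buffer with 1% DMSO, 1 h at room temperature. Fluorescence polarization (535 nm emission) gave % inhibition versus DMSO and positive controls; IC50 from 10-point curves, converted to Ki by the Nikolovska-Coleska equation.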

H929 cells = assay: Cell viability assay (H929 10 FBS); format: cell-based; conditions: Homo sapiens, NCI-H929, 24 hours, read-out: H929_10FBS IC50
Outline: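 H929 cells, 4000/well, in RPMI 1640 with 10% FBS, sodium pyruvate, HEPES and glucose were exposed to compound 24 h at 37 °C. Viability read as luminescence after 30-60 min at RT with CellTiter-Glo or ATPlite 1 Step.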

Chain of MCL-1 (Q07820 whole entry): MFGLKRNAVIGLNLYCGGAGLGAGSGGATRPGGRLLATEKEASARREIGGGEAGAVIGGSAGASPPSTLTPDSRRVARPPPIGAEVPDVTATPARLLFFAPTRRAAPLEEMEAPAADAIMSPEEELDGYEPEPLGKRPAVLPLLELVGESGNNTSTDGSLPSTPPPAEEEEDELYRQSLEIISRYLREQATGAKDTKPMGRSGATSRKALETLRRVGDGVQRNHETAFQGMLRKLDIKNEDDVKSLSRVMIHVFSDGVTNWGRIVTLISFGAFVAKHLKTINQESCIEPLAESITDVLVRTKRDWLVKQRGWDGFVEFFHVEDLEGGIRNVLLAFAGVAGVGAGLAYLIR

Row | Ki (MCL-1; class symbols) | IC50 (H929 cells) | Ki (MCL-1; numeric values) | SMILES
1 | < 1 nM | < 500 nM | – | COC1CCN(C(=O)O[C@H]2/C=C/CN(C)C3(CCC3)C(=O)NS(=O)(=O)c3ccc4c(c3)N(C[C@@H]3CC[C@H]32)C[C@@]2(CCCc3cc(Cl)ccc32)CO4)CC1 [Example 245, [(3R,6R,7S,8E,22S)-6′-Chloro-11-methyl-12,12-(1,3-propylene)-13,15,15-trioxo-spiro[20-oxa-15-thia-1,11,14-triazatetracyclo[14.7.2.03,6.019,24]pentacosa-8,16,18,24-tetraene-22,1′-tetralin]-7-yl] 4-methoxypiperidine-1-carboxylate]
2 | 1 to 100 nM | > 1000 nM | – | CO[C@@H]1/C=C/CN[C@@H](C)C(=O)NS(=O)(=O)c2ccc3c(c2)N(C[C@@H]2CC[C@H]21)C[C@@]1(CCCc2cc(Cl)ccc21)CO3 [Example 117, (3R,6R,7R,8E,12S,22S)-6′-Chloro-7-methoxy-12-methyl-15,15-dioxo-spiro[20-oxa-15-thia-1,11,14-triazatetracyclo[14.7.2.03,6.019,24]pentacosa-8,16(25),17,19(24)-tetraene-22,1′-tetralin]-13-one]
3 | – | > 1000 nM | 1640 nM | CC(=O)NS(=O)(=O)c1ccc2c(c1)N(Cc1cnn(C)c1)CC1(CCCc3cc(Cl)ccc31)CO2 (centres unmarked) [Example 9, N-[6′-Chloro-5-[(1-methylpyrazol-4-yl)methyl]spiro[2,4-dihydro-1,5-benzoxazepine-3,1′-tetralin]-7-yl]sulfonylacetamide]
4 | 1 to 100 nM | > 1000 nM | – | CN([C@H]1/C=C/COC(C)(C)C(=O)NS(=O)(=O)c2ccc3c(c2)N(C[C@@H]2CC[C@H]21)C[C@@]1(CCCc2cc(Cl)ccc21)CO3)S(C)(=O)=O [Example 256, N-Methyl-N-[(3R,6R,7S,8E,22S)-6′-chloro-12,12-dimethyl-13,15,15-trioxo-spiro[11,20-dioxa-15-thia-1,14-diazatetracyclo[14.7.2.03,6.019,24]pentacosa-8,16(25),17,19(24)-tetraene-22,1′-tetralin]-7-yl]methanesulfonamide]
5 | 1 to 100 nM | < 1000 nM | – | CO[C@@H]1/C=C/CN(C)[C@@H](C2CC2)C(=O)NS(=O)(=O)c2ccc3c(c2)N(C[C@@H]2CC[C@H]21)C[C@@]1(CCCc2cc(Cl)ccc21)CO3 [Example 127, (3R,6R,7R,8E,12S,22S)-6′-Chloro-12-cyclopropyl-7-methoxy-11-methyl-15,15-dioxo-spiro[20-oxa-15-thia-1,11,14-triazatetracyclo[14.7.2.0˜3,6.0˜19,24]pentacosa-8,16,18,24-tetraene-22,1′-tetralin]-13-one]
6 | < 1 nM | < 500 nM | – | CC1(C)OC/C=C/[C@H](OCC(=O)N2CCCC2)[C@@H]2CC[C@H]2CN2C[C@@]3(CCCc4cc(Cl)ccc43)COc3ccc(cc32)S(=O)(=O)NC1=O [Example 283, (3R,6R,7S,8E,22S)-6′-Chloro-12,12-dimethyl-15,15-dioxo-7-(2-oxo-2-pyrrolidin-1-yl-ethoxy)spiro[11,20-dioxa-15-thia-1,14-diazatetracyclo[14.7.2.03,6.019,24]pentacosa-8,16,18,24-tetraene-22,1′-tetralin]-13-one]
7 | < 1 nM | < 500 nM | – | CC1(C)OC/C=C/[C@H](OC(=O)N[C@H]2CCOC2)[C@@H]2CC[C@H]2CN2C[C@@]3(CCCc4cc(Cl)ccc43)COc3ccc(cc32)S(=O)(=O)NC1=O [Example 61, [(3R,6R,7S,8E,22S)-6′-Chloro-12,12-dimethyl-13,15,15-trioxo-spiro[11,20-dioxa-15-thia-1,14-diazatetracyclo[14.7.2.03,6.019,24]pentacosa-8,16,18,24-tetraene-22,1′-tetralin]-7-yl] N-[(3S)-tetrahydrofuran-3-yl]carbamate]
8 | < 1 nM | < 500 nM | – | CN(C)CCN(C)C(=O)O[C@H]1/C=C/COC(C)(C)C(=O)NS(=O)(=O)c2ccc3c(c2)N(C[C@@H]2CC[C@H]21)C[C@@]1(CCCc2cc(Cl)ccc21)CO3 [Example 55, [(3R,6R,7S,8E,22S)-6′-Chloro-12,12-dimethyl-13,15,15-trioxo-spiro[11,20-dioxa-15-thia-1,14-diazatetracyclo[14.7.2.0˜3,6.0˜19,24]pentacosa-8,16,18,24-tetraene-22,1′-tetralin]-7-yl] N-[2-(dimethylamino)ethyl]-N-methyl-carbamate]
9 | < 1 nM | < 1000 nM | – | CC1(C)OC/C=C/[C@H](OCC(=O)N2C[C@@H](F)[C@@H](F)C2)[C@@H]2CC[C@H]2CN2C[C@@]3(CCCc4cc(Cl)ccc43)COc3ccc(cc32)S(=O)(=O)NC1=O [Example 291, (3R,6R,7S,8E,22S)-6′-Chloro-7-[2-[(3R,4S)-3,4-difluoropyrrolidin-1-yl]-2-oxo-ethoxy]-12,12-dimethyl-15,15-dioxo-spiro[11,20-dioxa-15λ6-thia-1,14-diazatetracyclo[14.7.2.03,6.019,24]pentacosa-8,16,18,24-tetraene-22,1′-tetralin]-13-one]
10 | < 1 nM | < 500 nM | – | CO[C@H]1CCN(C(=O)O[C@H]2/C=C/COC(C)(C)C(=O)NS(=O)(=O)c3ccc4c(c3)N(C[C@@H]3CC[C@H]32)C[C@@]2(CCCc3cc(Cl)ccc32)CO4)C1 [Example 195, [(3R,6R,7S,8E,22S)-6′-Chloro-12,12-dimethyl-13,15,15-trioxo-spiro[11,20-dioxa-15-thia-1,14-diazatetracyclo[14.7.2.03,6.019,24]pentacosa-8,16,18,24-tetraene-22,1′-tetralin]-7-yl] (3S)-3-methoxypyrrolidine-1-carboxylate]
11 | < 1 nM | < 500 nM | – | CC1(C)OC/C=C/[C@H](OCCN2CC(F)(F)C2)[C@@H]2CC[C@H]2CN2C[C@@]3(CCCc4cc(Cl)ccc43)COc3ccc(cc32)S(=O)(=O)NC1=O [Example 258, (3R,6R,7S,8E,22S)-6′-Chloro-7-[2-(3,3-difluoroazetidin-1-yl)ethoxy]-12,12-dimethyl-15,15-dioxo-spiro[11,20-dioxa-15-thia-1,14-diazatetracyclo[14.7.2.03,6.019,24]pentacosa-8,16,18,24-tetraene-22,1′-tetralin]-13-one]
12 | < 1 nM | < 500 nM | – | CN(C(=O)O[C@H]1/C=C/COC(C)(C)C(=O)NS(=O)(=O)c2ccc3c(c2)N(C[C@@H]2CC[C@H]21)C[C@@]1(CCOc2cc(Cl)ccc21)CO3)C1COC1 [Example 303, [(3R,6R,7S,8E,22S)-7′-Chloro-12,12-dimethyl-13,15,15-trioxo-spiro[11,20-dioxa-15-thia-1,14-diazatetracyclo[14.7.2.03,6.019,24]pentacosa-8,16,18,24-tetraene-22,4′-chromane]-7-yl] N-methyl-N-(oxetan-3-yl)carbamate]
13 | < 1 nM | < 1000 nM | – | CC1(C)OC/C=C/[C@@H](O)[C@@H]2CC[C@H]2CN2C[C@@]3(CCCc4cc(Cl)ccc43)COc3ccc(cc32)S(=O)(=O)NC1=O [Example 36, (3R,6R,7R,8E,22S)-6′-Chloro-7-hydroxy-12,12-dimethyl-15,15-dioxo-spiro[11,20-dioxa-15-thia-1,14-diazatetracyclo[14.7.2.03,6.019,24]pentacosa-8,16,18,24-tetraene-22,1′-tetralin]-13-one]
